Key:
[1] = Drug excretion in Wistar rat urine at 4 mg/kg, iv measured after 2 hrs; assay type: ADME, organism-based; conditions: read-out: Drug excretion
NCI-H460 [2] = assay: Antitumor activity against human NCI-H460 cells xenografted in nude mouse assessed as inhibition of tumor weight at 6 mg/kg, iv administered once in every 2 days for 14 consecutive days cotreated with 50 mg/kg gefitinib once daily for 14 consecutive days relative to control; assay type: functional
Rattus norvegicus = assay: Clearance in Wistar rat at 8 mg/kg, iv; assay type: ADME, organism-based; conditions: in vivo
Cytochrome P450 2D6 = Cytochrome P450 2D6 (Homo sapiens, UniProt P10635); assay: Inhibition of CYP2D6 in human liver microsomes preincubated for 10 mins followed by NADPH addition measured after 10 mins by LC-MS/MS analysis; assay type: ADME
Chain of Cytochrome P450 2D6 (P10635 whole entry): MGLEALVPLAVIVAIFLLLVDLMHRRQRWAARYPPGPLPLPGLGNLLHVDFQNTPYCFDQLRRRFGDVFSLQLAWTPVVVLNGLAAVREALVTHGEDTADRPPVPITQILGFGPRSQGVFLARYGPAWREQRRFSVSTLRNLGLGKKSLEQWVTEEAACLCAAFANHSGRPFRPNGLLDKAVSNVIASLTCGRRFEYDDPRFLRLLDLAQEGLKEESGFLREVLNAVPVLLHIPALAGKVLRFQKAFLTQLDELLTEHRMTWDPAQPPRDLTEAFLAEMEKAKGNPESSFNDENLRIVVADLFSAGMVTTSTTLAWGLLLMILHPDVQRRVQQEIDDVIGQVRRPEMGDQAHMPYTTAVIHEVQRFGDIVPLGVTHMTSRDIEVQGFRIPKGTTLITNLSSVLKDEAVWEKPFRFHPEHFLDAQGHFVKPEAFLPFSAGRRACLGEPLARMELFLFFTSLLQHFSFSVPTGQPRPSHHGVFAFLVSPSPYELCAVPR

[3] = Drug excretion in Wistar rat urine at 4 mg/kg, iv measured after 12 hrs; assay type: ADME, organism-based; conditions: read-out: Drug excretion
NCI-H460 [4] = assay: Antitumor activity against human NCI-H460 cells xenografted in nude mouse assessed as inhibition of tumor volume at 6 mg/kg, iv administered once in every 2 days for 14 consecutive days cotreated with 50 mg/kg gefitinib once daily for 14 consecutive days relative to control; assay type: functional
Mus musculus [5] = assay: Toxicity in Balb/c mouse assessed as mortality at 20 mg/kg, iv administered three times in a day every 2 days for 15 consecutive days; assay type: organism-based; conditions: in vivo, 48 h
[6] = Stability in rat plasma at 1 uM after 40 mins by LC-MS/MS analysis; assay type: ADME, cell-free; conditions: read-out: Stability
[7] = Stability in rat plasma at 1 uM after 10 mins by LC-MS/MS analysis; assay type: ADME, cell-free; conditions: read-out: Stability
Cytochrome P450 2C9 = Cytochrome P450 2C9 (Homo sapiens, UniProt P11712); assay: Inhibition of CYP2C9 in human liver microsomes preincubated for 10 mins followed by NADPH addition measured after 10 mins by LC-MS/MS analysis; assay type: ADME
Chain of Cytochrome P450 2C9 (P11712 whole entry): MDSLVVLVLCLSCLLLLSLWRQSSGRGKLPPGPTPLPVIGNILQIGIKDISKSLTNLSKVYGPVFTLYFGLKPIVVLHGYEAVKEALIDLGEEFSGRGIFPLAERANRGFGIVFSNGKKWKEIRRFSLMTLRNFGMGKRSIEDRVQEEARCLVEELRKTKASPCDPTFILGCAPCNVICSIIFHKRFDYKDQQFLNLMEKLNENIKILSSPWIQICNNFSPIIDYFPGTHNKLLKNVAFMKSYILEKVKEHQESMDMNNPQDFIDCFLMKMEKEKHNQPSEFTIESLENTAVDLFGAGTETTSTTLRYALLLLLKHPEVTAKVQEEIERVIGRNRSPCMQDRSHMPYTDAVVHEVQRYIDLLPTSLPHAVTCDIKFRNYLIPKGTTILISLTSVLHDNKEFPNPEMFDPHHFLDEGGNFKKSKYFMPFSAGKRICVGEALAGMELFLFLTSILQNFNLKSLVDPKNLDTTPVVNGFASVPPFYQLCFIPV

[8] = Drug uptake in Wistar rat kidney at 6 mg/kg, iv measured after 1 hr; assay type: ADME, organism-based; conditions: in vivo
[9] = Drug uptake in Wistar rat large intestine at 6 mg/kg, iv measured after 0.5 hrs; assay type: ADME, organism-based; conditions: in vivo
[10] = Drug uptake in Wistar rat lungs at 6 mg/kg, iv measured after 1 hr; assay type: ADME, organism-based, Lung; conditions: in vivo
[11] = Cmax in Wistar rat at 4 mg/kg, iv; assay type: ADME, organism-based; parameters: dose 4 mg/kg, route intravenous; conditions: in vivo
[12] = Drug uptake in Wistar rat heart at 6 mg/kg, iv measured after 8 hrs; assay type: ADME, organism-based; conditions: in vivo
[13] = Stability in rat liver microsomes at 50 uM after 10 mins in presence of NADPH by LC-MS/MS analysis; assay type: ADME, microsome; conditions: liver microsomes, read-out: Stability
[14] = AUClast in Wistar rat at 8 mg/kg, iv; assay type: ADME, organism-based; parameters: dose 8 mg/kg, time 0 - last, route intravenous; conditions: in vivo
[15] = Toxicity in Balb/c mouse administered iv three times in a day every 2 days for 15 consecutive days; assay type: organism-based; conditions: in vivo
[16] = Drug uptake in Wistar rat liver at 6 mg/kg, iv measured after 4 hrs; assay type: ADME, organism-based; conditions: in vivo
Cytochrome P450 1A2 = molecular target: T1, Cytochrome P450 1A2 (Homo sapiens, UniProt P05177); assay: Inhibition of CYP1A2 in human liver microsomes preincubated for 10 mins followed by NADPH addition measured after 10 mins by LC-MS/MS analysis; assay type: ADME
T1 sequence (P05177 whole entry): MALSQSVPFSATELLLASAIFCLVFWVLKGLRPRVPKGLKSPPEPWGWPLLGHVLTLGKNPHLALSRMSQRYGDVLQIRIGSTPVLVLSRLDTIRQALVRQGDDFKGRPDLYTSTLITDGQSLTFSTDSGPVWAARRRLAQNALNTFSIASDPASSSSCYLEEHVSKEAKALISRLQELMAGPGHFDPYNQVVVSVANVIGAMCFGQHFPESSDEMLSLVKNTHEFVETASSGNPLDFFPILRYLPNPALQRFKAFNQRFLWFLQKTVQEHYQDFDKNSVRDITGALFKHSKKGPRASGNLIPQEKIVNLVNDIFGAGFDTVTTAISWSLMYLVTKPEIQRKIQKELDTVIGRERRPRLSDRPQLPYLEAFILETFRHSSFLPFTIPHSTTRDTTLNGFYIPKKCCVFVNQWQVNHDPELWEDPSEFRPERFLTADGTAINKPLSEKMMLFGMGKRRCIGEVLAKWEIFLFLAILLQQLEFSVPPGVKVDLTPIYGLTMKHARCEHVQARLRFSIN

[17] = MRTlast in Wistar rat at 8 mg/kg, iv; assay type: ADME, organism-based; conditions: in vivo
[18] = MRTlast in Wistar rat at 4 mg/kg, iv; assay type: ADME, organism-based; conditions: in vivo
[19] = Stability in rat liver microsomes at 50 uM after 90 mins in presence of NADPH by LC-MS/MS analysis; assay type: ADME, microsome; conditions: read-out: Stability
[20] = Drug uptake in Wistar rat lungs at 6 mg/kg, iv measured after 4 hrs; assay type: ADME, organism-based, Lung; conditions: in vivo
[21] = Drug uptake in Wistar rat liver at 6 mg/kg, iv measured after 0.5 hrs; assay type: ADME, organism-based; conditions: in vivo
[22] = Drug uptake in Wistar rat liver at 6 mg/kg, iv measured after 1 hr; assay type: ADME, organism-based; conditions: in vivo
[23] = Drug uptake in Wistar rat small intestine at 6 mg/kg, iv measured after 12 hrs; assay type: ADME, organism-based; conditions: in vivo
[24] = Drug uptake in Wistar rat small intestine at 6 mg/kg, iv measured after 1 hr; assay type: ADME, organism-based; conditions: in vivo
[25] = Stability in rat plasma at 1 uM after 90 mins by LC-MS/MS analysis; assay type: ADME, cell-free; conditions: read-out: Stability
Mus musculus [26] = assay: Toxicity in nude mouse xenografted with human NCI-H460 cells assessed as death at 3 to 6 mg/kg, iv administered once in every 2 days for 14 consecutive days cotreated with 25 to 50 mg/kg gefitinib once daily for 14 consecutive days; assay type: organism-based; conditions: in vivo, 48 h
[27] = Drug uptake in Wistar rat liver at 6 mg/kg, iv measured after 8 hrs; assay type: ADME, organism-based; conditions: in vivo
[28] = Drug uptake in Wistar rat kidney at 6 mg/kg, iv measured after 4 hrs; assay type: ADME, organism-based; conditions: in vivo
NCI-H460 [29] = assay: Antitumor activity against human NCI-H460 cells xenografted in nude mouse assessed as inhibition of tumor volume at 6 mg/kg, iv administered once in every 2 days for 14 consecutive days relative to control; assay type: functional; conditions: 48 h
[30] = AUC (0 to infinity) in Wistar rat at 4 mg/kg, iv; assay type: ADME, organism-based; parameters: dose 4 mg/kg, time infinity, route intravenous; conditions: in vivo
[31] = Protein binding in Beagle dog plasma at 2 uM after 4 hrs by LC-MS/MS analysis; assay type: ADME, cell-free, Canis lupus familiaris; conditions: read-out: PPB (converted)
NCI-H460 [32] = assay: Antitumor activity against human NCI-H460 cells xenografted in nude mouse assessed as inhibition of tumor volume at 9 mg/kg, iv administered once in every 2 days for 14 consecutive days relative to control; assay type: functional; conditions: 48 h
[33] = Drug excretion in Wistar rat urine at 4 mg/kg, iv measured after 24 hrs; assay type: ADME, organism-based; conditions: read-out: Drug excretion
[34] = Drug uptake in Wistar rat small intestine at 6 mg/kg, iv measured after 0.5 hrs; assay type: ADME, organism-based; conditions: in vivo
[35] = Drug uptake in Wistar rat pancreas at 6 mg/kg, iv measured after 12 hrs; assay type: ADME, organism-based; conditions: in vivo
Mus musculus [36] = assay: Toxicity in nude mouse xenografted with human NCI-H460 cells assessed as body weight at 3 mg/kg, iv administered once in every 2 days for 14 consecutive days (reference value: 20.6 +/- 1.5 g); assay type: organism-based; conditions: in vivo, 48 h
[37] = Clearance in Wistar rat at 4 mg/kg, iv; assay type: ADME, organism-based; conditions: in vivo
[38] = Drug uptake in Wistar rat brain at 6 mg/kg, iv measured after 8 hrs; assay type: ADME, organism-based; conditions: in vivo

Compound: [2H]/C(c1nc[nH]c1C(C)(C)C)=c1/[nH]c(=O)/c(=C/c2ccccc2)[nH]c1=O
- dose excreted at 2 h [1]: 0.05%
- inhibition (INH) (NCI-H460 [2]): 60.5%
- CL (Rattus norvegicus): 64.617 mL/min/kg
- IC50 (Cytochrome P450 2D6): 18400 nM
- dose excreted at 12 h [3]: 0.14%
- inhibition (INH) (NCI-H460 [4]): 67.8%
- Activity (Mus musculus [5]): Toxic
- remaining at 40 min, 1 µM [6]: 95.5%
- remaining at 10 min, 1 µM [7]: 96.8%
- IC50 (Cytochrome P450 2C9): 560 nM
- Drug uptake [8]: 6768.5 ng/mL/g
- Drug uptake [9]: 1936.4 ng/mL/g
- Drug uptake [10]: 158342.2 ng/mL/g
- Cmax [11]: 4420 ng/mL
- Drug uptake [12]: 88 ng/mL/g
- remaining at 10 min, 50 µM [13]: 80.6%
- AUC(0-t) [14]: 5780 ng·h/mL
- MTD at 48 h [15]: 15 mg/kg
- Drug uptake [16]: 4220 ng/mL/g
- IC50 (Cytochrome P450 1A2): 1020 nM
- MRT last [17]: 0.96 h
- MRT last [18]: 1.76 h
- remaining at 1.5 h, 50 µM [19]: 39.9%
- Drug uptake [20]: 49038.9 ng/mL/g
- Drug uptake [21]: 8281 ng/mL/g
- Drug uptake [22]: 8791.2 ng/mL/g
- Drug uptake [23]: 36.1 ng/mL/g
- Drug uptake [24]: 1128.6 ng/mL/g
- remaining at 1.5 h, 1 µM [25]: 99.3%
- Activity (Mus musculus [26]): Non-Toxic
- Drug uptake [27]: 1684.3 ng/mL/g
- Drug uptake [28]: 3570.8 ng/mL/g
- inhibition in vivo at 6 mg/kg (NCI-H460 [29]): 56.9%
- AUC(0-inf) [30]: 1330 ng·h/mL
- fraction unbound at 4 h, 2 µM [31]: 0.027
- inhibition in vivo at 9 mg/kg (NCI-H460 [32]): 68.2%
- dose excreted at 24 h [33]: 0.2%
- Drug uptake [34]: 1799.2 ng/mL/g
- Drug uptake [35]: 68.2 ng/mL/g
- Activity (Mus musculus [36]): 20.5 g
- clearance [37]: 71.4 mL/min/kg
- Drug uptake [38]: 144.8 ng/mL/g

Reference: ChEMBL document CHEMBL4229536, “In vitro and in vivo pharmacokinetic and pharmacodynamic study of MBRI-001, a deuterium-substituted plinabulin derivative as a potent anti-cancer agent” (Bioorg Med Chem, 2018)
